Assay results reported in patent US8426459B2, “Composition of flavanolignan and amino acid with improved water solubility” (Agra Group, A.S., priority 2008, dated 2013).
Values after ≈ are worked out from the molar mass of the structure shown. Read-outs that look alike come from different tables or passages of the source.

Key:
[1] = aqueous solution, 25° C., cited from earlier work; for p I: pI = ½ (pK2 + pK3)
[2] = Solutions of amino acids in water easily prepared at room temperature; format: physicochemical
Description: When dissolving the mixtures according to the invention in water it is necessary to take into consideration the different solubilities of the basic amino acids themselves.

[3] = Solubility of individual components of flavanolignans in the mixture according to Example 1; format: physicochemical; details: for solubility: read-out: Solubility of individual component in the mixture according to Example 1
Description: Solubility of individual components of flavanolignans in the mixture according to Example 1

[4] = cited from earlier work
[5] = 25° C., cited from earlier work
[6] = Buffer solution pH 4.5 (Bates, sodium acetate and hydrochloric acid, ionic strength 0.05)

| Molecule | Solubility of individual component in the mixture according to Example 1 [3, 6] | Solubility of individual component in the mixture according to Example 1 ([3]; Purified water) | pKa.1 ([4]; 25° C.) | pKa.2 ([4]; 25° C.) | pKa.3 ([4]; 25° C.) | pKa.1 ([4]; 37° C.) | pKa.2 ([4]; 37° C.) | pKa.3 ([4]; 37° C.) | also measured |
| --- | --- | --- | --- | --- | --- | --- | --- | --- | --- |
| N=C(N)NCCC[C@H](N)C(=O)O [L-arginine] |  |  |  |  |  |  |  |  | pK1 [1]: 2.01; pK2 [1]: 9.04; pK3 [1]: 12.48; p I [1]: 10.76 |
| NCCCC[C@H](N)C(=O)O [L-lysine] |  |  |  |  |  |  |  |  | pK1 [1]: 2.18; pK2 [1]: 8.95; pK3 [1]: 10.53; p I [1]: 9.47; concentration of amino acid solution in water that can be easily prepared [2]: 1.0 M |
| COc1cc(C2Oc3cc([C@H]4Oc5cc(O)cc(O)c5C(=O)[C@@H]4O)ccc3OC2CO)ccc1O (stereo partly shown) [silybin] |  |  | 7.00 | pKa.2[25° C.] = 8.77; pKa.2[37° C.] = 8.77 | 9.57 | 6.86 | pKa.2[25° C.] = 8.77; pKa.2[37° C.] = 8.77 | 9.62 | solubility of silybin ([5]; Capryl-caprine triglyceride): 800 ± 500 µg/mL; solubility of silybin ([5]; Castor oil): 7100 ± 1200 µg/mL; solubility of silybin ([5]; Ethanol): 225200 ± 5200 µg/mL; solubility of silybin ([5]; Ethoxy diglycol): 350100 ± 10400 µg/mL; solubility of silybin ([5]; Ethyl linoleate): 2100 ± 800 µg/mL; solubility of silybin ([5]; Fish oil): 500 ± 200 µg/mL; solubility of silybin ([5]; Glyceryl monooleate): 33200 ± 2800 µg/mL; solubility of silybin ([5]; Polyethylene glycol 200): 345900 ± 9500 µg/mL; solubility of silybin ([5]; Polyethylene glycol 400/ethanol (1:1)): 342100 ± 7100 µg/mL; solubility of silybin ([5]; Propylene glycol): 162400 ± 3600 µg/mL; solubility of silybin ([5]; Tocopherol): 20000 ± 1900 µg/mL; solubility of silybin ([5]; Water): 400 ± 100 µg/mL |
| COc1cc([C@@H]2[C@H]3CO[C@@]4(O)C(=O)[C@@H]2C=C([C@H]2Oc5cc(O)cc(O)c5C(=O)[C@@H]2O)[C@@H]34)ccc1O [silydianin] |  |  | 6.64 | 7.78 | 9.66 | 7.10 | 8.93 | 10.06 | solubility ([3]; aqueous buffer, Buffer solution pH 4.5 (Bates, sodium acetate and hydrochloric acid, ionic strength 0.05)): 189 µg/mL (≈ 392 µM); solubility ([3]; purified water, water): 215 µg/mL (≈ 445 µM) |

More lines, main results first:

| Solubility of individual component in the mixture according to Example 1 [3, 6] | Solubility of individual component in the mixture according to Example 1 ([3]; Purified water) | Molecule | pKa.1 ([4]; 25° C.) | pKa.2 ([4]; 25° C.) | pKa.3 ([4]; 25° C.) | pKa.1 ([4]; 37° C.) | pKa.2 ([4]; 37° C.) | pKa.3 ([4]; 37° C.) | also measured |
| --- | --- | --- | --- | --- | --- | --- | --- | --- | --- |
| 127.95 µg/mL | 178.41 µg/mL | COc1cc([C@H]2Oc3cc([C@H]4Oc5cc(O)cc(O)c5C(=O)[C@@H]4O)ccc3O[C@@H]2CO)ccc1O [Silybin A, silybin A] |  |  |  |  |  |  |  |
| 209.62 µg/mL | 289.05 µg/mL | COc1cc([C@@H]2Oc3cc([C@H]4Oc5cc(O)cc(O)c5C(=O)[C@@H]4O)ccc3O[C@H]2CO)ccc1O [Silybin B, silybin B] |  |  |  |  |  |  |  |
| 241.57 µg/mL | 258.24 µg/mL | COc1cc([C@@H]2Oc3c(O)cc([C@H]4Oc5cc(O)cc(O)c5C(=O)[C@@H]4O)cc3[C@H]2CO)ccc1O [silychristin] | 6.52 | 7.22 | 8.96 | 6.62 | 7.41 | 8.94 |  |
| 78.63 µg/mL | 112.90 µg/mL | Isosylibin |  |  |  |  |  |  |  |
